Results from ChEMBL document CHEMBL1201862, “PubChem BioAssay data set” (2004).
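Cells were grown in 96-well plates and exposed to each compound for 48 hours at five concentrations; endpoints were interpolated linearly between bracketing concentrations, or set to the highest concentration if not reached. Abbreviation: GI50, concentration required for 50% inhibition of growth.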 The source made the active and inactive calls. Cut-off read from the data, not from the text of the source: active = GI50 up to about 1.1 µM and inactive = higher.

Experiments:
Experiment in all cases: inhibition of tumour cell growth, NCI panel, 48 h
SNB-19 = tested on: SNB-19
Malme-3M = tested on: Malme-3M
MCF7 = tested on: MCF7
SF-268 = tested on: SF-268
SW-620 = tested on: SW-620
U-251 = tested on: U-251
CAKI-1 = tested on: CAKI-1
MOLT-4 = tested on: MOLT-4
KM12 = tested on: KM12
HCC 2998 = tested on: HCC 2998
NCI-H23 = tested on: NCI-H23
SR = tested on: SR
K562 = tested on: K562
OVCAR-4 = tested on: OVCAR-4
TK-10 = tested on: TK-10
CCRF-CEM = tested on: CCRF-CEM
SK-MEL-2 = tested on: SK-MEL-2
UACC-62 = tested on: UACC-62
Hs-578T = tested on: Hs-578T
RPMI-8226 = tested on: RPMI-8226
HL-60 = tested on: HL-60
PC-3 = tested on: PC-3
NCI/ADR-RES = tested on: NCI/ADR-RES
SNB-75 = tested on: SNB-75
HOP-62 = tested on: HOP-62
SK-MEL-5 = tested on: SK-MEL-5
M14 = tested on: M14
ACHN = tested on: ACHN
HCT-15 = tested on: HCT-15
MDA-MB-231 = tested on: MDA-MB-231
SK-MEL-28 = tested on: SK-MEL-28
T47D = tested on: T47D
SF-295 = tested on: SF-295
MDA-MB-435 = tested on: MDA-MB-435
HOP-92 = tested on: HOP-92
DU-145 = tested on: DU-145
UO-31 = tested on: UO-31
COLO 205 = tested on: COLO 205
OVCAR-5 = tested on: OVCAR-5
EKVX = tested on: EKVX
UACC-257 = tested on: UACC-257
786-0 = tested on: 786-0
A549 = tested on: A549
NCI-H460 = tested on: NCI-H460
SN12C = tested on: SN12C
HCT-116 = tested on: HCT-116
RXF 393 = tested on: RXF 393
SF-539 = tested on: SF-539
IGROV-1 = tested on: IGROV-1
LOX IMVI = tested on: LOX IMVI
OVCAR-3 = tested on: OVCAR-3
MDA-N = tested on: MDA-N
OVCAR-8 = tested on: OVCAR-8
NCI-H226 = tested on: NCI-H226
HT-29 = tested on: HT-29
SK-OV-3 = tested on: SK-OV-3

CC(C)CCC(=O)c1ccoc1 [PERILLAKETONE]
GI50 (SNB-19): > 100 µM (inactive) | GI50 (Malme-3M): > 100 µM (inactive) | GI50 (MCF7): > 100 µM (inactive) | GI50 (SF-268): > 100 µM (inactive) | GI50 (SW-620): > 100 µM (inactive) | GI50 (U-251): > 100 µM (inactive) | GI50 (CAKI-1): > 100 µM (inactive) | GI50 (MOLT-4): > 100 µM (inactive) | GI50 (KM12): > 100 µM (inactive) | GI50 (HCC 2998): > 100 µM (inactive) | GI50 (NCI-H23): > 100 µM (inactive) | GI50 (SR): > 100 µM (inactive) | GI50 (K562): > 100 µM (inactive) | GI50 (OVCAR-4): > 100 µM (inactive) | GI50 (TK-10): > 100 µM (inactive) | GI50 (CCRF-CEM): > 100 µM (inactive) | GI50 (SK-MEL-2): > 100 µM (inactive) | GI50 (UACC-62): > 100 µM (inactive) | GI50 (Hs-578T): > 100 µM (inactive) | GI50 (RPMI-8226): > 100 µM (inactive) | GI50 (HL-60): > 100 µM (inactive) | GI50 (PC-3): > 100 µM (inactive) | GI50 (NCI/ADR-RES): > 100 µM (inactive) | GI50 (SNB-75): > 100 µM (inactive) | GI50 (HOP-62): > 100 µM (inactive) | GI50 (SK-MEL-5): > 100 µM (inactive) | GI50 (M14): > 100 µM (inactive) | GI50 (ACHN): > 100 µM (inactive) | GI50 (HCT-15): > 100 µM | GI50 (MDA-MB-231): > 100 µM (inactive) | GI50 (SK-MEL-28): > 100 µM (inactive) | GI50 (T47D): > 100 µM (inactive) | GI50 (SF-295): > 100 µM (inactive) | GI50 (MDA-MB-435): > 100 µM (inactive) | GI50 (HOP-92): > 100 µM (inactive) | GI50 (DU-145): > 100 µM (inactive) | GI50 (UO-31): > 100 µM (inactive) | GI50 (COLO 205): > 100 µM (inactive) | GI50 (OVCAR-5): > 100 µM (inactive) | GI50 (EKVX): > 100 µM (inactive) | GI50 (UACC-257): > 100 µM (inactive) | GI50 (786-0): > 100 µM (inactive) | GI50 (A549): > 100 µM (inactive) | GI50 (NCI-H460): > 100 µM (inactive) | GI50 (SN12C): > 100 µM (inactive) | GI50 (HCT-116): > 100 µM (inactive) | GI50 (RXF 393): > 100 µM (inactive) | GI50 (SF-539): > 100 µM (inactive) | GI50 (IGROV-1): > 100 µM (inactive) | GI50 (LOX IMVI): > 100 µM (inactive) | GI50 (OVCAR-3): > 100 µM (inactive) | GI50 (MDA-N): > 100 µM (inactive) | GI50 (OVCAR-8): > 100 µM (inactive) | GI50 (NCI-H226): > 100 µM (inactive) | GI50 (HT-29): > 100 µM (inactive) | GI50 (SK-OV-3): > 100 µM (inactive)
